How the values were obtained:
laboratory animals = details: cited from earlier work
normal rats = assay: relative nephrotoxicity of HPBCD and BCD, intraperitoneal; format: in vivo, rat; details: for Mortality (died/total): BCD 0.75% w/v, HPBCD 1.5 and 3% w/v, 15 ml/100 g i.p.; for Rats died of kidney failure: in words
Method: (§1) A first study was conducted to determine the relative nephrotoxicity of HPBCD and BCD. A control group using phosphate buffer solution was also included in the study.
(§2) Three groups of normal rats were utilized in this study. […] Group I rats were given the vehicle solution of phosphate buffer saline (PBS). Group II rats were subdivided into three sub-groups. The first sub-group received a solution having a concentration of 1.5% HPBCD, the second sub-group received a solution having a concentration of 3% HPBCD while the third sub-group received a solution having a concentration of 6% HPBCD. Group III rats were given a solution having a concentration of 0.75% BCD.
(§3) Animals from each group were sacrificed at 24 and 72 hours after injection of the peritoneal solution. The animals were sacrificed under general anesthesia and exsanguinated from the abdominal aorta. Plasma was separated and blood urea nitrogen and creatinine was measured and used as an index of renal toxicity of the solutions.

[1] = as above; format: in vivo, rat; details: rat, in vivo, ip, BCD 0.75%
Method: as §1, §2, §3

[2] = 1 day, BCD 0.75%, HPBCD 1.5 and 3%
[3] = 3 day, BCD 0.75%, HPBCD 1.5 and 3%

In the case of OC[C@H]1O[C@@H]2O[C@H]3[C@H](O)[C@@H](O)[C@@H](O[C@H]4[C@H](O)[C@@H](O)[C@@H](O[C@H]5[C@H](O)[C@@H](O)[C@@H](O[C@H]6[C@H](O)[C@@H](O)[C@@H](O[C@H]7[C@H](O)[C@@H](O)[C@@H](O[C@H]8[C@H](O)[C@@H](O)[C@@H](O[C@H]1[C@H](O)[C@H]2O)O[C@@H]8CO)O[C@@H]7CO)O[C@@H]6CO)O[C@@H]5CO)O[C@@H]4CO)O[C@@H]3CO [BCD, beta-cyclodextrin], the “Renal toxicity (kidney enlargement, death)” value (laboratory animals; laboratory animals, reports in literature) is given as “enlargement of the kidneys and death due to kidney failure”, the “Toxicity at high concentrations” value (laboratory animals; rat, in vivo) is given as “toxic” and the “Removal of intravenously administered toxins” value (laboratory animals; rats, peritoneal dialysate, Perrin et al.) is given as “accelerate the removal of intravenously administered toxins in rats”. The “Mortality (died/total)” value (normal rats; 1 day) was 1/6, the Kidney size (normal rats; [2]) was “enlarged” and the Kidney weight (normal rats; [2]) was “increased”. The BUN (normal rats; 1 day, BCD 0.75%, HPBCD 1.5 and 3%, Table III) was 79.4 mg/dL, the “Mortality (died/total)” value (normal rats; 3 day) was 8/9 and the Kidney size (normal rats; [3]) was “enlarged”. For the same molecule, the Kidney weight (normal rats; [3]) was “increased”, the BUN (normal rats; BCD 0.75%, 1d, n = 6) was 79.4 mg/dL and the “Final body weight Wt (f)” value (normal rats; BCD 0.75%, 1d, n = 6) was 218 g. The “Initial body weight Wt (i)” value (normal rats; BCD 0.75%, 1d, n = 6) was 223 g, the “Left kidney weight (Lt kd)” value (normal rats; BCD 0.75%, 1d, n = 6) was 1272 mg and the “Left kidney/body weight (Lt kd/wt)” value (normal rats; BCD 0.75%, 1d, n = 6) was 5.83 mg/g. For the same molecule, the “Right kidney weight (Rt kd)” value (normal rats; BCD 0.75%, 1d, n = 6) was 1307 mg, the “Right kidney/body weight (Rt kd/wt)” value (normal rats; BCD 0.75%, 1d, n = 6) was 5.98 mg/g and the “Rats died of kidney failure” value (normal rats; BCD 1d Group) was “One rat”. For the same molecule, the “Rats died of kidney failure” value (normal rats; BCD 3d Group (nine rats)) was “all but two of the nine rats”, the mortality at 24 h ([1]; 1d, n = 6) was 16.7% and the mortality at 72 h ([1]; 3d, n = 9) was 77.8%.

Source: patent US4889634A, “Dialysate solution containing hydroxypropyl-beta-cyclodextrin and method of using same” (priority 1988, dated 1989)
